# Counter-ions that a name gives are not always drawn.
# Molecular target: T1, human MC2R (Homo sapiens, UniProt Q01718)
# T1 construct: host or cells: GeneBLAzer MC2R-CRE-bla CHO-K1 cells
# Assay: Measurement of human MC2R inhibitory activity using intracellular cAMP concentration as an indicator
# Assay type: cell-based
# Conditions: test compound at 1 µM; GeneBLAzer MC2R-CRE-bla CHO-K1 cells; ACTH (Human 1-24) final concentration 3 pM; intracellular cAMP by HTRF
# Method: Experimental Example 1: Measurement of human MC2R inhibitory activity using intracellular cAMP concentration as an indicator
# GeneBLAzer MC2R-CRE-bla CHO-K1 cells (Thermo Fisher Scientific) that had been cryopreserved in advance were thawed and suspended in a medium [Dulbecco's Modified Eagle Medium (Thermo Fisher Scientific) containing fetal bovine serum (10% (v/v), HyClone Laboratories), Non-Essential Amino Acids Solution (1/100 (w/w), Thermo Fisher Scientific), HEPES (25 mM, Thermo Fisher Scientific), Penicillin/Streptomycin (1/100 (w/w), Fujifilm Wako)]. After centrifuging the cell suspension, the supernatant was removed, the cells were suspended in D-PBS(-) (Fujifilm Wako), and the supernatant was removed again after centrifugation. The cells were resuspended in an assay buffer [Hank's Balanced Salt Solution (Thermo Fisher Scientific) containing HEPES pH 7.5 (10 mM, Thermo Fisher Scientific), fatty acid-free bovine serum albumin (0.01% (w/v), Sigma), IBMX (500 µM, Fujifilm Wako)] and added to a 384-well white plate (Greiner) at 1,500 cells/well. Then, the test compound prepared using the assay buffer was added, and after standing for 20 min, an assay buffer containing ACTH (Human 1-24) (Peptide Institute) was added (ACTH final concentration, 3 pM). After standing at room temperature for 30 min, the intracellular cAMP level was measured using cAMP Gs HiRange kit HTRF (PerkinElmer). The inhibition rate (%) of the compound against MC2R was calculated using the following formula. Inhibition rate (%) = […] [formula] • A: cAMP concentration calculated from wells containing 3 pM ACTH (1-24) • B: cAMP concentration calculated from wells without addition of 3 pM ACTH (1-24) • C: cAMP concentration calculated from wells containing 3 pM ACTH (1-24) and test compound at concentration determined in advance
# T1 sequence (Q01718 whole entry): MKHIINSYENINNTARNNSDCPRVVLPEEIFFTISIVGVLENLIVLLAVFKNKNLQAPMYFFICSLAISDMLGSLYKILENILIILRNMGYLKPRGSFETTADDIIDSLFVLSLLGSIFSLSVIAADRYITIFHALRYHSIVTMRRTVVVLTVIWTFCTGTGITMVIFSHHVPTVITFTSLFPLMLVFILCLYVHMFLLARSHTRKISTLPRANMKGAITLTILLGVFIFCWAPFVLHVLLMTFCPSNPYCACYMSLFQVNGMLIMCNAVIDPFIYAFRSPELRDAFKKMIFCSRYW
# T1 sequence (Q8TCY5 whole entry partner): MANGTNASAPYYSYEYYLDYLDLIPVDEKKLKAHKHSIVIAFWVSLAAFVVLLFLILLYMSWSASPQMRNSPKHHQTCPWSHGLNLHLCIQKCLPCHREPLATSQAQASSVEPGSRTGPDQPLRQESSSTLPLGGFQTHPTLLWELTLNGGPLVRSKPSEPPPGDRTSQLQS
row,Structure (SMILES),MC2R inhibition rate (% of inhibition)
1,"CCOc1ncccc1-c1ccc(N2CCN3C(=O)N(c4ccc(Cl)cc4C(F)(F)F)C[C@@H]3C2)c(C(=O)NC2CCNC2)n1 (stereo partly drawn) [Example 24, 3-[(8aS)-2-[4-chloro-2-(trifluoromethyl)phenyl]-3-oxo-5,6,8,8a-tetrahydro-1H-imidazo[1,5-a]pyrazin-7-yl]-6-(2-ethoxypyridin-3-yl)-N-pyrrolidin-3-ylpyridine-2-carboxamide 2hydrochloride]",100%
2,"CCOc1ncccc1-c1ccc(N2CCN3C(=O)N(c4ccc(Cl)cc4C(F)(F)F)C[C@@H]3C2)c(C(=O)NCCC2CCNCC2)n1 [Example 25, 3-[(8aS)-2-[4-chloro-2-(trifluoromethyl)phenyl]-3-oxo-5,6,8,8a-tetrahydro-1H-imidazo[1,5-a]pyrazin-7-yl]-6-(2-ethoxypyridin-3-yl)-N-(2-piperidin-4-ylethyl)pyridine-2-carboxamide 2 hydrochloride]",99%

# Same assay, conditions: test compound at 1 µM; GeneBLAzer MC2R-CRE-bla CHO-K1 cells; ACTH (Human 1-24) final concentration 3 pM; intracellular cAMP by HTRF; read-out: MC2R inhibition rate (% of inhibition)
row,Structure (SMILES),inhibition at 1 µM
1,"CCOc1ncccc1-c1ccc(N2CCN3C(=O)N(c4ccc(Cl)cc4C(F)(F)F)C[C@@H]3C2)c(C(=O)NCCc2ccccn2)n1 [Example 19, 3-[(8aS)-2-[4-chloro-2-(trifluoromethyl)phenyl]-3-oxo-5,6,8,8a-tetrahydro-1H-imidazo[1,5-a]pyrazin-7-yl]-6-(2-ethoxypyridin-3-yl)-N-(2-pyridin-2-ylethyl)pyridine-2-carboxamide]",100%
2,"CCOc1ncccc1-c1ccc(N2CCN3C(=O)N(c4ccc(Cl)cc4C(F)(F)F)C[C@@H]3C2)c(C(=O)NCCC2CCN(C(=O)OC(C)(C)C)CC2)n1 [Example 21, tert-butyl 4-[2-[[3-[(8aS)-2-[4-chloro-2-(trifluoromethyl)phenyl]-3-oxo-5,6,8,8a-tetrahydro-1H-imidazo[1,5-a]pyrazin-7-yl]-6-(2-ethoxypyridin-3-yl)pyridine-2-carbonyl]amino]ethyl]piperidine-1-carboxylate]",82%
3,"CCOc1ncccc1-c1ccc(N2CCN3C(=O)N(c4ccc(Cl)cc4C(F)(F)F)C[C@@H]3C2)c(C(=O)NCCCn2cccn2)n1 [Example 22, 3-[(8aS)-2-[4-chloro-2-(trifluoromethyl)phenyl]-3-oxo-5,6,8,8a-tetrahydro-1H-imidazo[1,5-a]pyrazin-7-yl]-6-(2-ethoxypyridin-3-yl)-N-(3-pyrazol-1-ylpropyl)pyridine-2-carboxamide]",100%

# Results, then the molecule that gave them:
row,inhibition at 1 µM,Structure (SMILES)
1,100%,"CCOc1ncccc1-c1ccc(N2CCN3C(=O)N(c4ccc(Cl)cc4C(F)(F)F)C[C@@H]3C2)c(C(=O)NCCS(C)(=O)=O)n1 [Example 18, 3-[(8aS)-2-[4-chloro-2-(trifluoromethyl)phenyl]-3-oxo-5,6,8,8a-tetrahydro-1H-imidazo[1,5-a]pyrazin-7-yl]-6-(2-ethoxypyridin-3-yl)-N-(2-methylsulfonylethyl)pyridine-2-carboxamide]"
2,99%,"CCOc1ncccc1-c1ccc(N2CCN3C(=O)N(c4ccc(Cl)cc4C(F)(F)F)C[C@@H]3C2)c(C(=O)NC2CCOC2)n1 (stereo partly drawn) [Example 20, 3-[(8aS)-2-[4-chloro-2-(trifluoromethyl)phenyl]-3-oxo-5,6,8,8a-tetrahydro-1H-imidazo[1,5-a]pyrazin-7-yl]-6-(2-ethoxypyridin-3-yl)-N-(oxolan-3-yl)pyridine-2-carboxamide]"
3,100%,"CCOc1ncccc1-c1ccc(N2CCN3C(=O)N(c4ccc(Cl)cc4C(F)(F)F)C[C@@H]3C2)c(C(=O)N[C@@H]2CCN(C)C2)n1 [Example 23, 3-[(8aS)-2-[4-chloro-2-(trifluoromethyl)phenyl]-3-oxo-5,6,8,8a-tetrahydro-1H-imidazo[1,5-a]pyrazin-7-yl]-6-(2-ethoxypyridin-3-yl)-N-[(3R)-1-methylpyrrolidin-3-yl]pyridine-2-carboxamide]"

# — EP4714953A1, “MELANOCORTIN 2-TYPE RECEPTOR ANTAGONIST” (Scohia Pharma, Inc., priority 2023, dated 2024)
